Tested on: cellular p-ERK in HCT116 human colorectal carcinoma / A375 human malignant melanoma cell lines
Test: Phospho-ERK cell-based assay (ELISA), Example 4
Conditions: in either one of the cell lines (HCT116, A375), 2 h or 24 h exposure
Procedure: Example 4 Phospho-ERK Cell-Based Assay
Compounds are tested in a cell-based phospho-ERK ELISA using the following cell lines:
HCT116 human colorectal carcinoma (ATCC)
A375 human malignant melanoma (ATCC)
Both cell lines are maintained in DMEM/F12 (1:1) media (Gibco) supplemented with 10% FCS at 37° C. in a 5% CO2 humidified incubator.
Cells are seeded in 96-well plates at 2,000 cells/well and after 24 h they are exposed to different concentrations of compounds in 0.83% DMSO. Cells are grown for a further 2 h or 24 h, fixed with formaldehyde (2% final) and permeabilised with methanol. Following blocking with TBST-3% BSA, fixed cells are incubated with primary antibody (anti-phospho ERK from rabbit) over-night at 4° C. Cells are incubated with Propidium Iodide (DNA fluorescent dye) and detection of cellular p-ERK is performed using an anti-rabbit secondary antibody conjugated to the fluorescent Alexa Fluor 488 dye (Molecular probes). The fluorescence is analysed using the Acumen Explorer (TTP Labtech), a laser-scanning microplate cytometer, and the Alexa Fluor 488 signal is normalised to the PI signal (proportional to cell number).
The EC50 is defined as the concentration at which a given compound achieves a signal half way between the baseline and the maximum response. EC50 values are calculated using the XLfit software package (version 2.0.5).

| Compound | EC50 |
| --- | --- |
| O=C(c1oc2ccncc2c1Nc1ccc(I)cc1F)N1CCC[C@@H]1CO [Example 87, (3-(2-fluoro-4-iodophenylamino)furo[3,2-c]pyridin-2-yl)((R)-2-(hydroxylmethyl)pyrrolidin-1-yl)methanone] | < 10 µM |
| N[C@@H]1CCN(C(=O)c2oc3ccncc3c2Nc2ccc(I)cc2F)C1 [Example 74, (3-(2-fluoro-4-iodophenylamino)furo[3,2-c]pyridin-2-yl)((R)-3-aminopyrrolidin-1-yl)methanone] | < 10 µM |
| O=C(c1oc2ccncc2c1Nc1ccc(I)cc1F)N1C[C@H](O)[C@@H](O)C1 [Example 60, (3-(2-fluoro-4-iodophenyl amino)furo[3,2-c]pyridin-2-yl)((3S,4S)-3,4-dihydroxypyrrolidin-1-yl)methanone] | < 10 µM |
| O=C(NCCCO)c1oc2ccncc2c1Nc1ccc(I)cc1F [Example 61, 3-(2-fluoro-4-iodophenylamino)-N-(3-hydroxypropyl)furo[3,2-c]pyridine-2-carboxamide] | < 10 µM |
| C[C@H](O)CONC(=O)c1oc2ccncc2c1Nc1ccc(I)cc1F [Example 118, 3-(2-Fluoro-4-iodo-phenylamino)-furo[3,2-c]pyridine-2-carboxylic acid ((S)-2-hydroxy-propoxy)-amide] | < 10 µM |
| CC(O)CONC(=O)c1oc2ccncc2c1Nc1ccc(I)cc1F (stereo not shown) [Example 55, 3-(2-Fluoro-4-iodo-phenylamino)-furo[3,2-c]pyridine-2-carboxylic acid (2-hydroxy-propoxy)-amide] | < 10 µM |
| O=C(c1oc2c(F)cncc2c1Nc1ccc(I)cc1F)N1C[C@H](O)[C@@H](O)C1 [Example 158, ((3S,4S)-3,4-Dihydroxy-pyrrolidin-1-yl)-[7-fluoro-3-(2-fluoro-4-iodo-phenylamino)-furo[3,2-c]pyridin-2-yl]-methanone] | < 10 µM |
| CN(CCO)C(=O)c1oc2ccncc2c1Nc1ccc(I)cc1F [Example 81, 3-(2-fluoro-4-iodophenylamino)-N-(2-hydroxyethyl)-N-methylfuro[3,2-c]pyridine-2-carboxamide] | < 10 µM |
| O=C(c1oc2ccncc2c1Nc1ccc(I)cc1F)N1CC(O)C1 [Example 122, (3-(2-fluoro-4-iodophenylamino)furo[3,2-c]pyridin-2-yl)(3-hydroxyazetidin-1-yl)methanone] | < 10 µM |
| O=C(c1oc2ccncc2c1Nc1ccc(I)cc1F)N1C[C@H](O)C[C@@H]1CO [Example 126, (3-(2-fluoro-4-iodophenylamino)furo[3,2-c]pyridin-2-yl)((2R,4R)-4-hydroxy-2-(hydroxymethyl)pyrrolidin-1-yl)methanone] | < 10 µM |
| O=C(NOCc1ccccc1)c1oc2ccncc2c1Nc1ccc(I)cc1F [Example 44, (2-Fluoro-4-iodo-phenylamino)-N-benzyloxyfuro[3,2-c]pyridine-2-carboxamide] | < 10 µM |
| CCONC(=O)c1oc2ccncc2c1Nc1ccc(I)cc1F [Example 50, (2-Fluoro-4-iodo-phenyl amino)-N-ethoxyfuro[3,2-c]pyridine-2-carboxamide] | < 10 µM |
| C[C@@H](O)CONC(=O)c1oc2ccncc2c1Nc1ccc(I)cc1F [Example 117, 3-(2-Fluoro-4-iodo-phenylamino)-furo[3,2-c]pyridine-2-carboxylic acid ((R)-2-hydroxy-propoxy)-amide] | < 10 µM |
| CC(C)(C)ONC(=O)c1oc2ccncc2c1Nc1ccc(I)cc1F [Example 99, (2-Fluoro-4-iodo-phenylamino)-N-tert-butoxyfuro[3,2-c]pyridine-2-carboxamide] | < 10 µM |
| O=C(NCCCONC(=O)c1oc2ccncc2c1Nc1ccc(I)cc1F)c1ccncc1 [Example 48, (2-Fluoro-4-iodo-phenyl amino)-N-[3-(isonicotinamide)propoxy] furo[3,2-c]pyridine-2-carboxamide] | < 10 µM |
| CC(C)(CO)ONC(=O)c1oc2c(F)cncc2c1Nc1ccc(I)cc1F [Example 156, 7-Fluoro-3-(2-fluoro-4-iodo-phenylamino)-furo[3,2-c]pyridine-2-carboxylic acid (2-hydroxy-1,1-dimethyl-ethoxy)-amide] | < 10 µM |
| Cc1nccc2oc(C(=O)NOCCO)c(Nc3ccc(I)cc3F)c12 [Example 144, 3-(2-Fluoro-4-iodo-phenylamino)-methyl-furo[3,2-c]pyridine-2-carboxylic acid (2-hydroxy-ethoxy)-amide] | < 10 µM |
| CN(OCCO)C(=O)c1oc2ccncc2c1Nc1ccc(I)cc1F [Example 23, 3-(2-Fluoro-4-iodo-phenylamino)-furo[3,2-c]pyridine-2-carboxylic acid (2-hydroxy-ethoxyl)-methyl-amide] | < 10 µM |
| O=C(NOC[C@H](O)CO)c1oc2c(F)cncc2c1Nc1ccc(I)cc1F [Example 159, 7-Fluoro-3-(2-fluoro-4-iodo-phenylamino)-furo[3,2-c]pyridine-2-carboxylic acid ((R)-2,3-dihydroxy-propoxy)-amide] | < 10 µM |
| C[C@H](O)CONC(=O)c1oc2c(F)cncc2c1Nc1ccc(I)cc1F [Example 155, 7-Fluoro-3-(2-fluoro-4-iodo-phenylamino)-furo[3,2-c]pyridine-2-carboxylic acid ((S)-2-hydroxy-propoxy)-amide] | < 10 µM |
| CC(C)ONC(=O)c1oc2ccncc2c1Nc1ccc(I)cc1F [Example 43, (2-Fluoro-4-iodo-phenylamino)-N-isopropoxyfuro[3,2-c]pyridine-2-carboxamide] | < 10 µM |
| O=C(NOCCO)c1oc2ccnc(Cl)c2c1Nc1ccc(I)cc1F [Example 147, 4-Chloro-3-(2-fluoro-4-iodo-phenylamino)-furo[3,2-c]pyridine-2-carboxylic acid (2-hydroxy-ethoxy)-amide] | < 10 µM |
| O=C(c1oc2ccncc2c1Nc1ccc(I)cc1F)N1CC[C@H](O)C1 [Example 70, (3-(2-fluoro-4-iodophenylamino)furo[3,2-c]pyridin-2-yl)((S)-3-hydroxypyrrolidin-1-yl)methanone] | < 10 µM |
| O=C(NOc1ccccc1)c1oc2ccncc2c1Nc1ccc(I)cc1F [Example 111, 3-(2-Fluoro-4-iodo-phenylamino)-N-phenyloxyfuro[3,2-c]pyridine-2-carboxamide] | < 10 µM |
| O=C(c1oc2c(F)cncc2c1Nc1ccc(I)cc1F)N1CC[C@@H](O)C1 [Example 157, [7-Fluoro-3-(2-fluoro-4-iodo-phenylamino)-furo[3,2-c]pyridin-2-yl]-((R)-3-hydroxy-pyrrolidin-1-yl)-methanone] | < 10 µM |

Results, then the compound that gave them:

| EC50 | Compound |
| --- | --- |
| < 10 µM | O=C(c1oc2ccncc2c1Nc1ccc(I)cc1F)N1CC[C@H](O)[C@H]1CO [Example 131, (3-(2-fluoro-4-iodophenylamino)furo[3,2-c]pyridin-2-yl)((2R,3S)-3-hydroxy-2-(hydroxymethyl)pyrrolidin-1-yl)methanone] |
| < 10 µM | O=C(c1oc2ccncc2c1Nc1ccc(I)cc1F)N1C[C@@H](O)[C@@H](O)C1 [Example 73, (3-(2-fluoro-4-iodophenylamino)furo[3,2-c]pyridin-2-yl)((3S,4R)-3,4-dihydroxypyrrolidin-1-yl)methanone] |
| < 10 µM | O=C(c1oc2ccncc2c1Nc1ccc(I)cc1F)N1CCC[C@H]1CO [Example 79, (3-(2-fluoro-4-iodophenylamino)furo[3,2-c]pyridin-2-yl)((S)-2-(hydroxymethyl)pyrrolidin-1-yl)methanone] |
| < 10 µM | CN(C)C(=O)c1oc2ccncc2c1Nc1ccc(I)cc1F [Example 83, 3-(2-fluoro-4-iodophenylamino)-N,N-dimethylfuro[3,2-c]pyridine-2-carboxamide] |
| < 10 µM | O=C(NCCCONC(=O)c1oc2ccncc2c1Nc1ccc(I)cc1F)c1cccnc1 [Example 47] |
| < 10 µM | O=C(NCCO)c1oc2ccncc2c1Nc1ccc(I)cc1F [Example 82, 3-(2-fluoro-4-iodophenylamino)-N-(2-hydroxyethyl)furo[3,2-c]pyridine-2-carboxamide] |
| < 10 µM | CNC(=O)c1oc2ccncc2c1Nc1ccc(I)cc1F [Example 91, 3-(2-fluoro-4-iodophenylamino)-N-methylfuro[3,2-c]pyridine-2-carboxamide] |
| < 10 µM | CSc1ccc(Nc2c(C(=O)NOCCO)oc3c(Cl)cncc23)c(F)c1 [Example 152, 7-Chloro-3-(2-fluoro-4-methylsulfanyl-phenylamino)-furo[3,2-c]pyridine-2-carboxylic acid (2-hydroxy-ethoxy)-amide] |
| < 10 µM | O=C(NCC[C@H](O)CO)c1oc2ccncc2c1Nc1ccc(I)cc1F [Example 95, 3-(2-fluoro-4-iodophenylamino)-N-((S)-3,4-dihydroxybutyl)furo[3,2-c]pyridine-2-carboxamide] |
| < 10 µM | O=C(c1oc2ccncc2c1Nc1ccc(I)cc1F)N1CC[C@@H](O)[C@H]1CO [Example 123] |
| < 10 µM | CC(C)(CO)ONC(=O)c1oc2ccncc2c1Nc1ccc(I)cc1F [Example 113, N-(1-hydroxy-2-methylpropan-2-yloxy)-3-(2-Fluoro-4-iodo-phenylamino)furo[3,2-c]pyridine-2-carboxamide] |
| < 10 µM | O=C(c1oc2ccncc2c1Nc1ccc(I)cc1F)N1CC[C@@H](O)C1 [Example 59, (3-(2-fluoro-4-iodophenyl amino)furo[3,2-c]pyridin-2-yl)((R)-3-hydroxypyrrolidin-1-yl)methanone] |

— patent publication US20080085886A1, “Aza-benzofuranyl compounds and methods of use” (GENENTECH, INC., priority 2006, published 2008)
